Experiments:
[1] = molecular target: Human immunodeficiency virus type 1 protease (Human immunodeficiency virus 1, UniProt Q72874); assay: Inhibition of HIV-1 protease using Abz-Thr-Ile-Nle-Phe-(p-NO2)-Gln-Arg-NH2 as substrate preincubated for 5 to 10 mins followed by substrate addition and measured after 1 hr by spectrofluorometric assay
[2] = test system: Human immunodeficiency virus 1; assay: Antiviral activity against HIV-1 LAI infected in human MT2 cells reduction in virus-induced cytopathic effect measured after 7 days by MTT assay; format: functional, organism-based; details: Human immunodeficiency virus 1, LAI, MT2, 168 h

| SMILES | Ki [1] | EC50 [2] |
| --- | --- | --- |
| COc1ccc(S(=O)(=O)N(CC(C)C)C[C@@H](O)[C@H](Cc2ccccc2)NC(=O)O[C@H]2CC[C@@H]3C[C@H]4CO[C@@H](C(C)C)[C@@]42O3)cc1 | 855 nM |  |
| COc1ccc(S(=O)(=O)N(CC(C)C)C[C@@H](O)[C@H](Cc2ccccc2)NC(=O)O[C@@H]2CC[C@@H]3C[C@H]4CO[C@@H](C(C)C)[C@@]42O3)cc1 | 620 nM | > 1000 nM |
| COc1ccc(S(=O)(=O)N(CC(C)C)C[C@@H](O)[C@H](Cc2ccccc2)NC(=O)O[C@@H]2CC[C@@H]3C[C@H]4CO[C@@H](C)[C@@]42O3)cc1 | 20.6 nM | > 1000 nM |
| COc1ccc(S(=O)(=O)N(CC(C)C)C[C@@H](O)[C@H](Cc2ccccc2)NC(=O)O[C@H]2CC[C@@H]3C[C@H]4CO[C@@H](c5ccccc5)[C@@]42O3)cc1 | 43 nM | > 1000 nM |
| COc1ccc(S(=O)(=O)N(CC(C)C)C[C@@H](O)[C@H](Cc2ccccc2)NC(=O)O[C@H]2CC[C@@H]3C[C@H]4CO[C@@H](C)[C@@]42O3)cc1 | 1.65 nM | 240 nM |
| COc1ccc(S(=O)(=O)N(CC(C)C)C[C@@H](O)[C@H](Cc2ccccc2)NC(=O)O[C@@H]2CC[C@@H]3C[C@H]4CO[C@@H](c5ccccc5)[C@@]42O3)cc1 | 1300 nM | > 1000 nM |
| COc1ccc(S(=O)(=O)N(CC(C)C)C[C@@H](O)[C@H](Cc2ccccc2)NC(=O)O[C@@H]2CC[C@H]3C[C@@H]4CO[C@H](c5ccccc5)[C@]42O3)cc1 | 272 nM | > 1000 nM |
| COc1ccc(S(=O)(=O)N(CC(C)C)C[C@@H](O)[C@H](Cc2ccccc2)NC(=O)O[C@H]2CC[C@H]3C[C@@H]4CO[C@H](c5ccccc5)[C@]42O3)cc1 | 424 nM | > 1000 nM |
